Numbered stars: 1 amine (or outer) side, 2 acyl side, 3 side chain; on linkers, the order of the positions; unused ones are H or OH. Bridge positions count the residues as written; N and C are the ends. Square brackets hold non-standard residues; d marks the D form. Side chains are listed from the residue outwards. Peptide text beside a SMILES is read from it. * marks the point of attachment. C20 diacid = O=C(O)CCCCCCCCCCCCCCCCCCC(=O)*; γGlu = O=C(O)[C@H](CCC(=O)[*:2])N[*:1]; Hyp = O=C(O)[C@@H]1C[C@@H](O)CN1; Aze = O=C(O)[C@@H]1CCN1; Dap = NC[C@H](N)C(=O)O; AEEA = NCCOCCOCC(=O)O
Legend:
[1] = molecular target: T1, human amylin receptor (Homo sapiens, UniProt O60896+P30988); assay: Luciferase assay of amylin derivatives in amylin receptor/CRE-luc CHO cell line; type: cell-based; conditions: CHO-K1/Ga15/AMY3 CRE-luc cells, 24 hours incubation, F12 medium containing 10% FBS; read-out: EC50
T1 construct: host or cells: CHO-K1/Ga15/AMY3 cells, further stably transfected with a CRE-luciferase plasmid
T1 sequence (P30988 25-474): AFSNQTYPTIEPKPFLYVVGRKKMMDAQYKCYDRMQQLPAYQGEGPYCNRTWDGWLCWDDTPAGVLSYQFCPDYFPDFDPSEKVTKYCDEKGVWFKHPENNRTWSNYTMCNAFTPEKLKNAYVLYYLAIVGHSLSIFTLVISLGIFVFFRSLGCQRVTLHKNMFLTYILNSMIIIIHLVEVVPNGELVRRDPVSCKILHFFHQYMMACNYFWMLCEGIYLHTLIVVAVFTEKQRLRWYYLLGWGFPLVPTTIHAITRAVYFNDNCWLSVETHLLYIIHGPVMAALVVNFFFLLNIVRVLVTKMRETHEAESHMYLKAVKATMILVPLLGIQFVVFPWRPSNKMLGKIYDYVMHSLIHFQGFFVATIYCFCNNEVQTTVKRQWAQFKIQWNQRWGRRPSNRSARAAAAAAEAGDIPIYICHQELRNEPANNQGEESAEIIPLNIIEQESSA
T1 sequence (O60896 24-148 partner): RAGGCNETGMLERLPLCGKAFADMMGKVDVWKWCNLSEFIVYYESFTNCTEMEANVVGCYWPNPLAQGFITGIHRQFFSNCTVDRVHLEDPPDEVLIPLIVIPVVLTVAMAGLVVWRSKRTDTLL
Procedure: The experiment was intended to detect the activity or efficacy of the amylin derivatives on a human amylin receptor in vitro by luciferase assay.
50 μL of growth medium (F12 medium containing 10% FBS) was added into each well of a white 96-well plate, and the stably transfected amylin/CRE-lue CHO cells were inoculated into the white 96-well plate at a density of about 20,000 cells/well for activity determination.

[2] = Freeze-thaw stability of derivatives (freeze-thaw yield by liquid chromatography); type: physicochemical; conditions: for Dissolution property: appearance after dissolution at 0.2 mg/ml in 20 mM phosphate buffer solution (PB) (pH 7.0); for Freeze storage property: appearance after overnight storage at −20° C. and thawing to room temperature, 0.2 mg/ml in 20 mM PB (pH 7.0); for Freeze storage yield: concentration of polypeptide after freezing and thawing / concentration before, by liquid chromatography, −20° C. overnight
Procedure, shortened: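 Lyophilised peptide derivative dissolved at 0.2 mg/ml in 20 mM phosphate buffer, pH 7.0, frozen overnight at −20° C, then thawed at room temperature. Peptide concentration before and after freeze-thaw measured by reversed-phase HPLC on centrifuged supernatant; yield = post-thaw/pre-thaw concentration.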

SMILES | EC50 [1] | Dissolution property [2] | Freeze storage property [2] | Freeze storage yield [2]
CC[C@H](C)[C@H](NC(=O)[C@@H]1CCCN1C(=O)[C@H](CCCCNC(=O)CC[C@H](NC(=O)CCCCCCCCCCCCCCCCCCC(=O)O)C(=O)O)NC(=O)[C@H](CC(C)C)NC(=O)[C@H](CC(N)=O)NC(=O)[C@H](CC(N)=O)NC(=O)[C@H](CO)NC(=O)[C@H](CO)NC(=O)[C@H](Cc1c[nH]cn1)NC(=O)[C@H](CCCNC(=N)N)NC(=O)[C@H](CC(C)C)NC(=O)[C@H](Cc1ccccc1)NC(=O)[C@H](CC(=O)O)NC(=O)[C@H](C)NC(=O)[C@H](CC(C)C)NC(=O)[C@H](CCCNC(=N)N)NC(=O)[C@H](CCC(N)=O)NC(=O)[C@@H](NC(=O)[C@H](C)NC(=O)[C@@H]1CSSC[C@H](NC(=O)[C@@H](N)CCCNC(=N)N)C(=O)N[C@@H](CC(N)=O)C(=O)N[C@@H]([C@@H](C)O)C(=O)N[C@@H](C)C(=O)N[C@@H]([C@@H](C)O)C(=O)N1)[C@@H](C)O)C(=O)N[C@@H](CC(C)C)C(=O)N1CCC[C@H]1C(=O)N1CCC[C@H]1C(=O)N[C@H](C(=O)N[C@@H](CC(N)=O)C(=O)N[C@H](C(=O)NCC(=O)N[C@@H](CO)C(=O)N[C@@H](CC(N)=O)C(=O)N[C@H](C(=O)N1CC[C@H]1C(N)=O)[C@@H](C)O)C(C)C)[C@@H](C)O [PD060] (H-RCNTATCATQRLADFLRHSSNNLK([γGlu-C20 diacid])PILPPTNVGSNT[Aze]-NH2; disulfide 2-7 (inferred)) | 0.246 nM | Clear | Clear | 104.35%
CC[C@H](C)[C@H](NC(=O)[C@@H]1CCCN1C(=O)[C@H](CCCCNC(=O)CC[C@H](NC(=O)CCCCCCCCCCCCCCCCCCC(=O)O)C(=O)O)NC(=O)[C@H](CC(C)C)NC(=O)[C@H](CC(N)=O)NC(=O)[C@H](CC(N)=O)NC(=O)[C@H](CO)NC(=O)[C@H](CO)NC(=O)[C@H](Cc1c[nH]cn1)NC(=O)[C@H](CCCNC(=N)N)NC(=O)[C@H](CC(C)C)NC(=O)[C@H](Cc1ccccc1)NC(=O)[C@H](CN)NC(=O)[C@H](C)NC(=O)[C@H](CC(C)C)NC(=O)[C@H](CCCNC(=N)N)NC(=O)[C@H](CCC(N)=O)NC(=O)[C@@H](NC(=O)[C@H](C)NC(=O)[C@@H]1CSSC[C@H](NC(=O)[C@@H](N)CCCNC(=N)N)C(=O)N[C@@H](CC(N)=O)C(=O)N[C@@H]([C@@H](C)O)C(=O)N[C@@H](C)C(=O)N[C@@H]([C@@H](C)O)C(=O)N1)[C@@H](C)O)C(=O)N[C@@H](CC(C)C)C(=O)N1CCC[C@H]1C(=O)N1CCC[C@H]1C(=O)N[C@H](C(=O)N[C@@H](CC(N)=O)C(=O)N[C@H](C(=O)NCC(=O)N[C@@H](CO)C(=O)N[C@@H](CC(N)=O)C(=O)N[C@H](C(=O)N1CCC[C@H]1C(N)=O)[C@@H](C)O)C(C)C)[C@@H](C)O [PD045] (H-RCNTATCATQRLA[Dap]FLRHSSNNLK([γGlu-C20 diacid])PILPPTNVGSNTP-NH2; disulfide 2-7 (inferred); N-terminus assumed) | 0.364 nM | Clear | Clear | 95.59%
CC[C@H](C)[C@H](NC(=O)[C@@H]1CCCN1C(=O)CNC(=O)[C@H](CC(C)C)NC(=O)[C@H](CCCCNC(=O)COCCOCCNC(=O)COCCOCCNC(=O)CC[C@H](NC(=O)CCCCCCCCCCCCCCCCCCC(=O)O)C(=O)O)NC(=O)[C@H](CC(N)=O)NC(=O)[C@H](CO)NC(=O)[C@H](CO)NC(=O)[C@H](Cc1c[nH]cn1)NC(=O)[C@H](CCCNC(=N)N)NC(=O)[C@H](CC(C)C)NC(=O)[C@H](Cc1ccccc1)NC(=O)[C@H](CCC(=O)O)NC(=O)[C@H](C)NC(=O)[C@H](CC(C)C)NC(=O)[C@H](CCCNC(=N)N)NC(=O)[C@H](CCC(N)=O)NC(=O)[C@@H](NC(=O)[C@H](C)NC(=O)[C@@H]1CSSC[C@H](NC(=O)[C@@H](N)CCCNC(=N)N)C(=O)N[C@@H](CC(N)=O)C(=O)N[C@@H]([C@@H](C)O)C(=O)N[C@@H](C)C(=O)N[C@@H]([C@@H](C)O)C(=O)N1)[C@@H](C)O)C(=O)N[C@@H](CC(C)C)C(=O)N1CCC[C@H]1C(=O)N1CCC[C@H]1C(=O)N[C@H](C(=O)N[C@@H](CC(N)=O)C(=O)N[C@H](C(=O)NCC(=O)N[C@@H](CO)C(=O)N[C@@H](CC(N)=O)C(=O)N[C@H](C(=O)N1CCC[C@H]1C(N)=O)[C@@H](C)O)C(C)C)[C@@H](C)O [PD002] (H-RCNTATCATQRLAEFLRHSSNK([AEEA-AEEA-γGlu-C20 diacid])LGPILPPTNVGSNTP-NH2; disulfide 2-7 (inferred); N-terminus assumed) | 0.119 nM | Clear | Clear | 

These reach a lower EC50 [1]. Values come first.

EC50 [1] | Dissolution property [2] | Freeze storage property [2] | Freeze storage yield [2] | SMILES
0.032 nM | Clear | Clear | 102.65% | CC[C@H](C)[C@H](NC(=O)[C@@H]1CCCN1C(=O)CNC(=O)[C@H](CC(C)C)NC(=O)[C@H](CCCCNC(=O)COCCOCCNC(=O)COCCOCCNC(=O)CC[C@H](NC(=O)CCCCCCCCCCCCCCCCCCC(=O)O)C(=O)O)NC(=O)[C@H](CC(N)=O)NC(=O)[C@H](CO)NC(=O)[C@H](CO)NC(=O)[C@H](Cc1c[nH]cn1)NC(=O)[C@H](CCCNC(=N)N)NC(=O)[C@H](CC(C)C)NC(=O)[C@H](Cc1ccccc1)NC(=O)[C@H](CC(=O)O)NC(=O)[C@H](C)NC(=O)[C@H](CC(C)C)NC(=O)[C@H](CCCNC(=N)N)NC(=O)[C@H](CCC(N)=O)NC(=O)[C@@H](NC(=O)[C@H](C)NC(=O)[C@@H]1CSSC[C@H](NC(=O)[C@@H](N)CCCNC(=N)N)C(=O)N[C@@H](CC(N)=O)C(=O)N[C@@H]([C@@H](C)O)C(=O)N[C@@H](C)C(=O)N[C@@H]([C@@H](C)O)C(=O)N1)[C@@H](C)O)C(=O)N[C@@H](CC(C)C)C(=O)N1CCC[C@H]1C(=O)N1CCC[C@H]1C(=O)N[C@H](C(=O)N[C@@H](CC(N)=O)C(=O)N[C@H](C(=O)NCC(=O)N[C@@H](CO)C(=O)N[C@@H](CC(N)=O)C(=O)N[C@H](C(=O)N1C[C@H](O)C[C@H]1C(N)=O)[C@@H](C)O)C(C)C)[C@@H](C)O [PD087] (H-RCNTATCATQRLADFLRHSSNK([AEEA-AEEA-γGlu-C20 diacid])LGPILPPTNVGSNT[Hyp]-NH2; disulfide 2-7 (inferred); N-terminus assumed)
0.067 nM | Clear | Clear |  | CC[C@H](C)[C@H](NC(=O)[C@@H]1CCCN1C(=O)[C@H](CCCCNC(=O)CC[C@H](NC(=O)CCCCCCCCCCCCCCCCCCC(=O)O)C(=O)O)NC(=O)[C@H](CC(C)C)NC(=O)[C@H](CC(N)=O)NC(=O)[C@H](CC(N)=O)NC(=O)[C@H](CO)NC(=O)[C@H](CO)NC(=O)[C@H](Cc1c[nH]cn1)NC(=O)[C@H](CCCNC(=N)N)NC(=O)[C@H](CC(C)C)NC(=O)[C@H](Cc1ccccc1)NC(=O)[C@H](CCC(=O)O)NC(=O)[C@H](C)NC(=O)[C@H](CC(C)C)NC(=O)[C@H](CCCNC(=N)N)NC(=O)[C@H](CCC(N)=O)NC(=O)[C@@H](NC(=O)[C@H](C)NC(=O)[C@@H]1CSSC[C@H](NC(=O)[C@@H](N)CCCNC(=N)N)C(=O)N[C@@H](CC(N)=O)C(=O)N[C@@H]([C@@H](C)O)C(=O)N[C@@H](C)C(=O)N[C@@H]([C@@H](C)O)C(=O)N1)[C@@H](C)O)C(=O)N[C@@H](CC(C)C)C(=O)N1CCC[C@H]1C(=O)N1CCC[C@H]1C(=O)N[C@H](C(=O)N[C@@H](CC(N)=O)C(=O)N[C@H](C(=O)NCC(=O)N[C@@H](CO)C(=O)N[C@@H](CC(N)=O)C(=O)N[C@H](C(=O)N1CCC[C@H]1C(N)=O)[C@@H](C)O)C(C)C)[C@@H](C)O [PD009] (H-RCNTATCATQRLAEFLRHSSNNLK([γGlu-C20 diacid])PILPPTNVGSNTP-NH2; disulfide 2-7 (inferred))

Source: patent publication US20260166128A1, “HUMAN AMYLIN ANALOG, AND DERIVATIVE THEREOF AND USE THEREOF” (priority 2022, published 2026)
